This passage reports inhibition and inhibition in vivo results from patent US8088801B2, “Aryloazol-2-yl cyanoethylamino compounds, method of making and method of using thereof” (Merial Limited, priority 2007, dated 2012).

Assay [1] relates to Haemonchus contortus. Description: Method A: screening against Haemonchus contortus, L1 larvae in microtitre plate. As to conditions: 96 h, 4 days assessment, read-out: motility inhibition; for inhibition at 0.15 ppm: test concentration 0.15 ppm; for inhibition at 0.01 ppm: test concentration 0.01 ppm; for inhibition at 0.0025 ppm: test concentration 0.0025 ppm. The text has this:
Method A: Screening Method to Test Activity of Compounds Against Haemonchus contortus.

Assay [2] relates to Trichostrongylus colubriformis. In words: Method D: screening against Trichostrongylus colubriformis, L1 larvae in microtitre plate. As to conditions: 96 h, 4 days assessment, read-out: motility inhibition; for inhibition at 0.15 ppm: test concentration 0.15 ppm; for inhibition at 0.01 ppm: test concentration 0.01 ppm; for inhibition at 0.0025 ppm: test concentration 0.0025 ppm. Here is the method:
Method D: Screening Method to Test Activity of Compounds Against Trichostrongylus colubriformis.
Twenty L1 Trichostrongylus colubriformis larvae were added to wells of a microtitre plate containing a nutrient medium and the test compound in DMSO. The microtitre plate was then held at 27° C. where the L1 larvae were allowed to develop. An analysis was conducted at 4 days to determine successful development to the L3 stage. Larvae exposed to DMSO and no test compound served as controls. Compounds numbers 1.008, 1.014, 1.042, 1.047, 1.048, 1.073, 2.001, 2.003 and 2.020, gave at least 90% motility inhibition at a test concentration of 0.15 ppm at the 4 days assessment. Compounds numbers 1.001, 1.003, 1.007, 1.011, 1.037, 1.038, 1.043, 1.056, 1.066, 1.070, 1.071, 2.012 and 2.016, gave at least 90% motility inhibition at a test concentration of 0.04 ppm at the 4 days assessment. Compounds numbers 1.012, 1.020, 1.021, 1.033, 1.034, 1.039, 1.064, 1.065, 2.008, 2.009 and 3.005 gave at least 90% motility inhibition at a test concentration of 0.01 ppm at the 4 days assessment. Compounds numbers 1.094, 2.040, 2.048, 2.049, 3.006, 3.009, 3.011 and 3.012 gave at least 90% motility inhibition at a test concentration of 0.0025 ppm at the 4 days assessment.

Assay [3] has as its system Haemonchus contortus. In words: Method B: Haemonchus contortus in vivo in Mongolian gerbil, oral gavage. As to conditions: 72 h, Mongolian gerbils, read-out: reduction in nematode infestation; for inhibition in vivo at 100 mg/kg: necropsy 3 days after treatment. Set-up: species or system Mongolian gerbil (Meriones unguiculatus). Here is the method:
Method B: Screening Method to Test Activity of Compounds Against Haemonchus contortus In Vivo in Mongolian Gerbil (Meriones unguiculatus).
Mongolian gerbils, at least five weeks old, were immunosuppressed and artificially infected with ca. 1000 ensheathed Haemonchus contortus third instar larvae. Six days after infection, the Mongolian gerbils were treated by oral gavage with the test compounds, dissolved in a mixture of 2 parts DMSO and 1 part polyethylene glycol (PEG400), at doses of 100 mg/kg and dissolved in pure polyethylene glycol (PEG400) at doses of 10 and 1 mg/kg. Jirds treated only with the placebo (2 parts DMSO and 1 part PEG400 or pure PEG400) served as controls. On day 9 (3 days after treatment) the jirds were euthanized and necropsied for recovery of parasites from the stomach. Efficacy was calculated as the average % reduction in the number of worms in each test group compared with the average number of worms from the control group. […] Compound numbers 1.001, 1.008, 1.012, 1.013 and 1.014 provided at least 95% reduction in nematode infestation in Mongolian gerbils treated by oral gavage with test article at a dose of 100 mg/kg. Compound numbers 1.012, 1.033, 1.064, 2.008, 2.037, 2.038, 2.040, 2.041, 3.001 provided at least 95% reduction in nematode infestation at a dose of 10 mg/kg. Compound numbers 1.094, 2.048, 3.001, 3.007 and 3.009, provided at least 95% reduction in nematode infestation at a dose of 1 mg/kg. Compound numbers 3.005, 3.006, 3.011, 3.012, 3.017 and 3.019, provided at least 95% reduction in nematode infestation at a dose of 0.5 mg/kg.

The subject of assay [4] is Microfilaria of Dirofilaria immitis. In words: Method F: microfilaria of Dirofilaria immitis in microtitre plate. As to conditions: test concentration 50 ppm, assessment at 24 hours, read-out: motility inhibition. Here is the method:
Method F: Screening Method to Test Activity of Compounds Against Microfilaria of Dirofilaria immitis.
Four hundred to six hundred microfilaria of Dirofilaria immitis were added to wells of a microtitre plate containing buffer and the test compound in DMSO. The microtitre plate was then held at 37° C. in an environment containing 5% CO2. An assessment was conducted at 24 hours to determine survival of the microfilaria. Microfilaria exposed to DMSO and no test compound served as controls. Compounds numbers 1.003, 1.012, 1.013, 1.064, 1.086, 1.087, 1.090, 1.094, 2.043, 2.046, 2.047, 2.048, 2.049, 3.005, 3.006, 3.009, 3.011, 3.012, 3.017, 3.019 and 3.023 gave at least 90% motility inhibition at a test concentration of 50 ppm.

Some results are limits rather than exact numbers.

Regarding `CC(C#N)(Cn1nc2ccc(C(F)(F)F)cc2n1)NC(=O)c1ccc(OC(F)(F)F)cc1` (centres unmarked) [Compound 1.008, N-[1-Cyano-1-methyl-2-(5-trifluoromethyl-2H-benzotriazol-2-yl)ethyl]-4-trifluoromethoxybenzamide], the inhibition at 0.15 ppm in assay [1] and in assay [2] was at least 90% throughout. In addition, in assay [3], the inhibition in vivo at 100 mg/kg is at least 95%.
Turning to `CC(C#N)(Cn1nc2cc(Cl)cc(Cl)c2n1)NC(=O)c1ccc(OC(F)(F)F)cc1` (centres unmarked) [Compound 1.012, N-[1-Cyano-2-(4,6-dichloro-2H-benzotriazol-2-yl)-1-methylethyl]-4-trifluoromethoxybenzamide], the inhibition – broadly, how much of the control response was suppressed – at 0.01 ppm in assay [1] is at least 90%. Besides, in assay [4], the inhibition at 50 ppm is at least 90%. Moreover, in assay [2], the inhibition at 0.01 ppm was at least 90%. In addition, in assay [3], the inhibition in vivo at 10 mg/kg is at least 95% and the inhibition in vivo at 100 mg/kg is at least 95%.
For `CC(C#N)(Cn1nc2cc(C(F)(F)F)cc(Cl)c2n1)NC(=O)c1ccc(OC(F)(F)F)cc1` (centres unmarked) [Compound 1.014, N-[2-(4-Chloro-6-trifluoromethyl-2H-benzotriazol-2-yl)-1-cyano-1-methylethyl]-4-trifluoromethoxybenzamide], the inhibition at 0.15 ppm in assay [1] and in assay [2] was at least 90% throughout. In addition, in assay [3], the inhibition in vivo at 100 mg/kg is at least 95%.
With `Cc1cc(Cl)cc2nn(CC(C)(C#N)NC(=O)c3ccc(OC(F)(F)F)cc3)nc12` (centres unmarked) [Compound 1.033, N-[−2-(6-Chloro-4-methyl-2H-benzotriazol-2-yl)-1-cyano-1-methylethyl]-4-trifluoromethoxybenzamide], the inhibition at 0.01 ppm in assay [1] and in assay [2] was at least 90% in each case. In addition, the inhibition in vivo at 10 mg/kg in assay [3] was at least 95%.
For the molecule `CC(C#N)(Cn1nc2c(Cl)cc(Cl)c(Cl)c2n1)NC(=O)c1ccc(OC(F)(F)F)cc1` (centres unmarked) [Compound 1.064, N-[1-Cyano-1-methyl-2-(4,5,7-trichloro-2H-benzotriazol-2-yl)-ethyl]-4-trifluoromethoxybenzamide], the inhibition at 0.0025 ppm in assay [1] was at least 90%. The inhibition at 50 ppm in assay [4] was at least 90%. Moreover, the inhibition at 0.01 ppm in assay [2] is at least 90%. Further, in assay [3], the inhibition in vivo at 10 mg/kg was at least 95%.
In the case of `CC(C#N)(Cn1nc2c(Cl)cc(Cl)c(Br)c2n1)NC(=O)c1ccc(OC(F)(F)F)cc1` (centres unmarked) [Compound 1.086, N-[2-(4-Bromo-5,7-dichloro-2H-benzotriazol-2-yl)-1-cyano-1-methylethyl]-4-trifluoromethoxybenzamide], the inhibition at 0.0025 ppm in assay [1] is at least 90%. The inhibition at 50 ppm in assay [4] is at least 90%.
As to `CC(C#N)(Cn1nc2c(Cl)cc(Cl)c(F)c2n1)NC(=O)c1ccc(OC(F)(F)F)cc1` (centres unmarked) [Compound 1.090, N-[1-Cyano-2-(5,7-dichloro-4-fluoro-2H-benzotriazol-2-yl)-1-methylethyl]-4-trifluoromethoxybenzamide], the inhibition at 0.0025 ppm in assay [1] was at least 90%. The inhibition at 50 ppm in assay [4] is at least 90%.
Take `Cc1cc(Br)c(F)c2nn(CC(C)(C#N)NC(=O)c3ccc(OC(F)(F)F)cc3)nc12` (centres unmarked) [Compound 1.094, N-[2-(5-bromo-4-fluoro-7-methyl-2H-benzotriazol-2-yl)-1-cyano-1-methylethyl]-4-trifluoromethoxybenzamide]: the inhibition at 0.0025 ppm in assay [1] and in assay [2] was at least 90% in each case. In addition, in assay [4], the inhibition at 50 ppm was at least 90%. The inhibition in vivo at 1 mg/kg in assay [3] is at least 95%.
Consider `COc1c2ccc(Cl)cc2nn1CC(C)(C#N)NC(=O)c1ccc(OC(F)(F)F)cc1` (centres unmarked) [Compound 2.008, N-[2-(6-Chloro-3-methoxy-2H-indazol-2-yl)-1-cyano-1-methylethyl]-4-trifluoromethoxybenzamide], for which the inhibition at 0.0025 ppm in assay [1] was at least 90%. For the same molecule, the inhibition at 0.01 ppm in assay [2] is at least 90%. Moreover, in assay [3], the inhibition in vivo at 10 mg/kg is at least 95%.
Consider `CC(C#N)(Cn1cc2c(Cl)cc(Cl)cc2n1)NC(=O)c1ccc(OC(F)(F)F)cc1` (centres unmarked) [Compound 2.040, N-[1-Cyano-2-(4,6-dichloro-2H-indazol-2-yl)-1-methylethyl]-4-trifluoromethoxybenzamide], for which the inhibition at 0.0025 ppm in assay [1] and in assay [2] was at least 90% throughout. Moreover, the inhibition in vivo at 10 mg/kg in assay [3] was at least 95%.
On to `CC(C#N)(Cn1cc2ccc(Cl)c(Br)c2n1)NC(=O)c1ccc(OC(F)(F)F)cc1` (centres unmarked) [Compound 2.043, N-[2-(7-Bromo-6-chloro-2H-indazol-2-yl)-1-cyano-1-methylethyl]-4-trifluoromethoxybenzamide], for which the inhibition at 0.0025 ppm in assay [1] is at least 90%. Besides, in assay [4], the inhibition at 50 ppm is at least 90%.
As to `CC(C#N)(Cn1nc2c(Br)c(Cl)cc(Cl)c2c1Br)NC(=O)c1ccc(OC(F)(F)F)cc1` (centres unmarked) [Compound 2.046, N-[1-Cyano-2-(3,7-dibromo-4,6-dichloro-2H-indazol-2-yl)-1-methylethyl]-4-trifluoromethoxybenzamide], in assay [1], the inhibition at 0.0025 ppm is at least 90%. In assay [4], the inhibition at 50 ppm was at least 90%.
Consider `CC(C#N)(Cn1cc2c(Cl)cc(Cl)c(Cl)c2n1)NC(=O)c1ccc(OC(F)(F)F)cc1` (centres unmarked) [Compound 2.048, N-[1-Cyano-1-methyl-2-(4,6,7-trichloro-2H-indazol-2-yl)ethyl]-4-trifluoromethoxybenzamide], for which the inhibition at 0.0025 ppm in assay [1] and in assay [2] was at least 90% throughout. For the same molecule, in assay [4], the inhibition at 50 ppm is at least 90%. In addition, the inhibition in vivo at 1 mg/kg in assay [3] was at least 95%.
As for `CC(C#N)(Cn1cc2ncc(Cl)cc2n1)NC(=O)c1ccc(OC(F)(F)F)cc1` (centres unmarked) [Compound 3.005, N-[2-(6-Chloro-2H-pyrazolo[4,3-b]pyridin-2-yl)-1-cyano-1-methylethyl]-4-trifluoromethoxybenzamide], the inhibition at 0.01 ppm in assay [1] and in assay [2] was at least 90% each time. For the same molecule, the inhibition at 50 ppm in assay [4] was at least 90%. Further, the inhibition in vivo at 0.5 mg/kg in assay [3] is at least 95%.
For the molecule `CC(C#N)(Cn1nc2cc(Cl)cnc2c1Cl)NC(=O)c1ccc(OC(F)(F)F)cc1` (centres unmarked) [Compound 3.017, N-[1-Cyano-2-(3,6-dichloro-2H-pyrazolo[4,3-b]pyridin-2-yl)-1-methylethyl]-4-trifluoromethoxybenzamide], the inhibition at 0.01 ppm in assay [1] was at least 90%. In addition, in assay [4], the inhibition at 50 ppm was at least 90%. Also, in assay [3], the inhibition in vivo at 0.5 mg/kg was at least 95%.
As to `CC(C#N)(Cn1nc2cc(Cl)cnc2c1Br)NC(=O)c1ccc(OC(F)(F)F)cc1` (centres unmarked) [Compound 3.019, N-[2-(3-Bromo-6-chloro-2H-pyrazolo[4,3-b]pyridin-2-yl)-1-cyano-1-methylethyl]-4-trifluoromethoxybenzamide], the inhibition at 0.04 ppm in assay [1] (test concentration 0.04 ppm) is at least 90%. Further, the inhibition at 50 ppm in assay [4] is at least 90%. In assay [3], the inhibition in vivo at 0.5 mg/kg is at least 95%.
